Earlier results, collected in patent US20150209399A1, “Methods For Enhacement Of Dehydroepiandrosterone Using Green Coffee Bean Extract” (Applied Food Sciences, Inc., priority 2013, published 2015).

Experiments:
[1] = tested on: human coxsackievirus B4 strain
platelet aggregation = conditions: four of the five test subjects who received DHEA; second week
[2] = 300 mg DHEA per day orally, second week; baseline 316.2
[3] = human, in vivo

Compound	mortality of infected animals treated with DHEA ([1]; 100,000 plaque forming units/animal, about 90% mortality in infected animals) [%]	elevation in the number of antibody forming cells ([1]; within the animal) [%]	rate of platelet aggregation (platelet aggregation)	mean serum DHEA-S level, DHEA group [2] [µg/dL]	half-life [3]
C[C@]12CCC(O)CC1=CC[C@@H]1[C@@H]2CC[C@]2(C)C(=O)CC[C@@H]12 (some centres unmarked) [DHEA, 3-hydroxyandrost-5-en-17-one]	37	80	slower rate of aggregation	1451.9 ± 56.7	
chlorogenic acids					less than 12 hours
